Measurements reported in article PMC4742234, “Screening of Drug Metabolizing Enzymes for the Ginsenoside Compound K In Vitro: An Efficient Anti-Cancer Substance Originating from Panax Ginseng” (PLoS ONE, 2016).
Values joined by “and” are separate entries in the source; they are usually repeats but may differ in a detail not shown here. Equal values may be shown once. “Also recorded” adds a separate entry of the source.

What was measured:
[1] = test system: CYP1A2, CYP2A6, CYP2D6, CYP2E1, CYP2C19; assay: Effect of the other specific inhibitors on CK metabolism in HLMs; assay type: in vitro ADME, human; conditions: CK 50 μM, furafylline, tranylcypromine, quinidine, ticlopidine 1 μM, chlormethiazole 5 μM
Procedure: (§1) The method was conducted according to our previous study with some modifications. The CYP isoform-specific probe reactions used were phenacetin O-deethylation (for CYP1A2), coumarin 7-hydroxylation (for CYP2A6), tolbutamide 4-hydroxylation (for CYP2C9), metoprolol α-hydroxylation (for CYP2D6), chlorzoxazone 6-hydroxylation (for CYP2E1),S-Mephenytoin 4-hydroxylation (for CYP2C19), and midazolam 1-hydroxylation (for CYP3A4). The kinetic study of CK was conducted with HLMs. A 0.2 mL incubation mixture that consisted of CK (as a substrate), the HLMs (0.5 mg/mL) or CYP isoforms (10 pmol), and 0.1 M sodium phosphate buffer (pH 7.4) was pre-warmed for 5 min at 37°C. The reaction was initiated by the addition of 1 mg/mL triphosphopyridine nucleotide (NADPH). […]
To screen the specific CYP isoform responsible for the CK metabolism, we determined the inhibitory effect of specific inhibitors on the metabolism of CK in the HLMs as described in detail previously. […] The inhibitory effects of the above specific inhibitors on the metabolic clearance rate of CK were evaluated separately to screen the CYP isoforms responsible for the CK metabolism. The relative activity of the CYP isoforms was calculated by dividing the peak area of CK when incubated with the inhibitor by that of CK from the negative controls. […]

CYP3A4 = test system: CYP3A4; design: method as in Hao et al.(2008); conditions: baculosomes, ref Hao et al.(2008); cited from earlier work
[2] = test system: human liver microsomes (HLMs); assay: Kinetic analysis of CK metabolism in human liver microsomes; assay type: in vitro ADME; conditions: HLMs 0.5 mg/mL, CK 10–100 μM, 37°C, 30 min, NADPH
Procedure: as §1, with “(NADPH). All the reagents were dissolved in methanol, and the final solvent concentration in all incubations (including the controls) was 1%. The final incubations were performed in a shaking water bath (37°C) for 30 min. The reactions were stopped by adding 0.2 mL ice-cold acetonitrile, which contains irbesartan (114.9 ng/mL) as the internal standard. The samples were vortexed for 5 min. After centrifugation (12000×g for 10 min), the supernatants were transferred, and aliquots of 20 μL were injected into the HPLC-MS/MS system for analysis.” for “(NADPH).”

[3] = as above; assay type: in vitro ADME; conditions: human, human liver microsomes, pH 7.4, HLMs 0.5 mg/mL, CK 10–100 μM, 37°C, NADPH
Procedure: as §1, with “(NADPH). All the reagents were dissolved in methanol, and the final solvent concentration in all incubations (including the controls) was 1%. The final incubations were performed in a shaking water bath (37°C) for 30 min. The reactions were stopped by adding 0.2 mL ice-cold acetonitrile, which contains irbesartan (114.9 ng/mL) as the internal standard. The samples were vortexed for 5 min. After centrifugation (12000×g for 10 min), the supernatants were transferred, and aliquots of 20 μL were injected into the HPLC-MS/MS system for analysis.” for “(NADPH).”

In the case of `CC(C)=CCC[C@](C)(OC1O[C@H](CO)[C@@H](O)[C@H](O)[C@H]1O)[C@H]1CC[C@]2(C)[C@@H]1[C@H](O)C[C@@H]1[C@@]3(C)CC[C@H](O)C(C)(C)[C@@H]3CC[C@]12C` (stereo partly drawn) [CK, 20-O-β-(D-glucopyranosyl)-20(S)-protopanaxadiol], the “effect of other specific inhibitors / CYP isoforms on CK metabolism” value [1] is listed as “minimal or no effect; also recorded: no obvious inhibitory effects; also recorded: no significant inhibitory effects”, the CYP3A4 inhibition (CYP3A4) is listed as “moderate” and the “Vmax of CK metabolism” value [2] is listed as 0.28±0.04 nmol/mg protein/min and 0.2840 nmol/mg protein/min. For the same compound, the Km at 30 min [3] was 84.2 ± 21.9 µM.
